Assay results: paper PMC10574557, “The Inhibitory Effect of Magnolol on the Human TWIK1 Channel Is Related to G229 and T225 Sites” (Molecules, 2023)
Changes are numbered by the printed parent chain.

Assays:
Type in all cases: cell-based
TWIK1 (K2P1.1/KCNK1) [1] = molecular target: T1, TWIK1 (K2P1.1/KCNK1) (Homo sapiens, UniProt O00180, I140A); assay: whole-cell patch clamp, transiently transfected HEK293, Hill fit
T1 construct: full-length cDNA (OriGene) in pcDNA3.1(neo+), stably expressed in HEK293; mutants transiently transfected in HEK293 with CD8; homodimer
T1 sequence (O00180 1-336 I140A): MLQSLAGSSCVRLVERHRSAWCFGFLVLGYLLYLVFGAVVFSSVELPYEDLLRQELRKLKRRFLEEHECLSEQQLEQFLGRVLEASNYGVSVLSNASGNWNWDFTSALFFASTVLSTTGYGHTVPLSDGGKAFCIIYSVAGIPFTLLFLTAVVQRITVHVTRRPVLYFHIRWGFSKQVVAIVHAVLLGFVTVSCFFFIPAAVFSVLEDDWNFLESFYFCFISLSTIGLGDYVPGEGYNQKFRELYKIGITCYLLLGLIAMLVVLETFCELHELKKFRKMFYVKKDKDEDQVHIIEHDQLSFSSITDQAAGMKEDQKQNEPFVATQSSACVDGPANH

TWIK1 (K2P1.1/KCNK1) [2] = molecular target: T2, TWIK1 (K2P1.1/KCNK1) (Homo sapiens, UniProt O00180, T225A); assay: as above
T2 construct: full-length cDNA (OriGene) in pcDNA3.1(neo+), stably expressed in HEK293; mutants transiently transfected in HEK293 with CD8; homodimer
T2 sequence (O00180 1-336 T225A): T1 sequence (O00180 1-336 I140A) with A140I, T225A

TWIK1 (K2P1.1/KCNK1) [3] = molecular target: T3, TWIK1 (K2P1.1/KCNK1) (Homo sapiens, UniProt O00180, L223A); assay: as above
T3 construct: full-length cDNA (OriGene) in pcDNA3.1(neo+), stably expressed in HEK293; mutants transiently transfected in HEK293 with CD8; homodimer
T3 sequence (O00180 1-336 L223A): T1 sequence (O00180 1-336 I140A) with A140I, L223A

TWIK1 (K2P1.1/KCNK1) [4] = molecular target: T4, TWIK1 (K2P1.1/KCNK1) (Homo sapiens, UniProt O00180); assay: whole-cell patch clamp, HEK293-TWIK1 stable line, Hill fit
T4 construct: full-length cDNA (OriGene) in pcDNA3.1(neo+), stably expressed in HEK293; mutants transiently transfected in HEK293 with CD8; homodimer
T4 sequence (O00180 1-336): T1 sequence (O00180 1-336 I140A) with A140I

TWIK1 (K2P1.1/KCNK1) [5] = molecular target: T5, TWIK1 (K2P1.1/KCNK1) (Homo sapiens, UniProt O00180, S224A); assay: whole-cell patch clamp, transiently transfected HEK293, Hill fit
T5 construct: full-length cDNA (OriGene) in pcDNA3.1(neo+), stably expressed in HEK293; mutants transiently transfected in HEK293 with CD8; homodimer
T5 sequence (O00180 1-336 S224A): T1 sequence (O00180 1-336 I140A) with A140I, S224A

TWIK1 (K2P1.1/KCNK1) [6] = molecular target: T6, TWIK1 (K2P1.1/KCNK1) (Homo sapiens, UniProt O00180, G229A); assay: as above
T6 construct: full-length cDNA (OriGene) in pcDNA3.1(neo+), stably expressed in HEK293; mutants transiently transfected in HEK293 with CD8; homodimer
T6 sequence (O00180 1-336 G229A): T1 sequence (O00180 1-336 I140A) with A140I, G229A

IC50 (TWIK1 (K2P1.1/KCNK1) [1]): 10.2 ± 1.07 µM | IC50 (TWIK1 (K2P1.1/KCNK1) [2]): 21.8 ± 7.93 µM | IC50 (TWIK1 (K2P1.1/KCNK1) [3]): 9.55 ± 1.62 µM | IC50 (TWIK1 (K2P1.1/KCNK1) [4]): 6.21 ± 0.13 µM | IC50 (TWIK1 (K2P1.1/KCNK1) [5]): 7.43 ± 3.2 µM | IC50 (TWIK1 (K2P1.1/KCNK1) [6]): 20.8 ± 3.2 µM
Compound: C=CCc1ccc(O)c(-c2cc(CC=C)ccc2O)c1 [magnolol]
